Results taken from patent publication US8192962B2, “Processes for detecting toxic substances” (Daikin Industries, Ltd., priority 2001, dated 2012).

System: Metabolism protein genes
Assay: DNA chip mRNA expression in yeast, metabolism protein genes (Table 7)
Type: cell-based, Saccharomyces cerevisiae S288C
Method: Yeast (Saccharomyces cerevisiae S288C (α SUC2mal mel gap2 CUP1)) were incubated at 25° C. on YPD medium (yeast extract 1%, polypepton 2%, glucose 2%). One of toxic chemical substances was added to the cells at logarithmic growth phase, and the cells were further incubated for two hours. Cells were cultured without any chemical substance in the same condition, and were used as control. Concentrations of the chemical substances were defined to inhibit the growth of the yeast but not lead to death.
After completion of the incubation, the culture was centrifuged to collect the cells. To the cells, sodium acetate buffer (50 mM sodium acetate, 10 mM EDTA, 1% SDS) was added, and the mixture was shaken at 65° C. for five minutes, followed by returning to room temperature, and obtaining the supernatant, of which the procedures were repeated two times. To the supernatant, ½ amount of a solution of phenol/chloroform was added, and the mixture was centrifuged to give a supernatant, which was added with an equal amount of chloroform, and the mixture was centrifuged to give a supernatant. To the supernatant, an equal amount of isopropanol containing 0.3 M sodium acetate was added, and the mixture was allowed to stand at room temperature for 30 minutes, after which the mixture was centrifuged to give a sediment of the whole RNAs. Seventy % ethanol was added to the sediment, and the mixture was again centrifuged to give a sediment, which was then dried and dissolved in water. mRNA was isolated from the whole RNAs as followings. In view of the fact that a poly A chain is attached to the 3′ terminus of mRNA, a polynucleotide having a poly T structure which was immobilized on the surface of latex beads was used to trap the mRNA, and then the mRNA was washed and eluted with spine column (Oligotex-dT30<Super>mRNA Purification Kit, Takara). Reverse transcription of the mRNA was conducted with a reverse transcriptase (Super Script II Reverse Transcriptase; catalogue No. 18064-014, GibcoBRL) using fluorescence-labeled nucleotides to give cDNAs that were introduced with Cy3-dUTP or Cy5-dUTP during the reverse transcription.
The labeled cDNAs were dissolved in TE buffer (10mM Tris-HCl/1 mM EDTA, pH8.0), and the solution was dropped on the DNA chip containing the whole genes of yeast (DNA Chip Research Inc. Japan) so that the cDNAs were hybridized on the DNA chip at 65° C. for over 12 hours. The fluoresces intensity of the DNA chip was read with a scanner, and the ratio relative to the fluorescence intensity resulting from the absence of chemical substance was estimated as the following, which is shown in Tables 1 to 9: […]

In the case of Oc1cc(Cl)c(Cl)cc1Cl [(6), 2,4,5-trichlorophenol], the “The level of expressed mRNA in the presence of chemical substance/The level of expressed mRNA in the absence of chemical substance” value (yeast gene YAL012W) is reported as 1.6, the “The level of expressed mRNA in the presence of chemical substance/The level of expressed mRNA in the absence of chemical substance” value (yeast gene YAL038W) is reported as 1.3 and the “The level of expressed mRNA in the presence of chemical substance/The level of expressed mRNA in the absence of chemical substance” value (yeast gene YBL001C) is reported as 2.4. The “level of expressed mRNA in the presence/in the absence of chemical substance” value (yeast gene YBR003W) was 1.2, the “level of expressed mRNA in the presence/in the absence of chemical substance” value (yeast gene YBR011C) was 2.0 and the “level of expressed mRNA in the presence/in the absence of chemical substance” value (yeast gene YBR020W) was 0.8. The “The level of expressed mRNA in the presence of chemical substance/The level of expressed mRNA in the absence of chemical substance” value (yeast gene YBR023C) was 0.5, the “The level of expressed mRNA in the presence of chemical substance/The level of expressed mRNA in the absence of chemical substance” value (yeast gene YBR029C) was 0.8 and the “The level of expressed mRNA in the presence of chemical substance/The level of expressed mRNA in the absence of chemical substance” value (yeast gene YBR111C) was 3.0. For the same molecule, the “The level of expressed mRNA in the presence of chemical substance/The level of expressed mRNA in the absence of chemical substance” value (yeast gene YBR183W) was 2.5, the “The level of expressed mRNA in the presence of chemical substance/The level of expressed mRNA in the absence of chemical substance” value (yeast gene YBR222C) was 1.3 and the “The level of expressed mRNA in the presence of chemical substance/The level of expressed mRNA in the absence of chemical substance” value (yeast gene YBR256C) was 2.0. For the same molecule, the “The level of expressed mRNA in the presence of chemical substance/The level of expressed mRNA in the absence of chemical substance” value (yeast gene YCL009C) was 1.8, the “The level of expressed mRNA in the presence of chemical substance/The level of expressed mRNA in the absence of chemical substance” value (yeast gene YCL064C) was 3.3 and the “level of expressed mRNA in the presence/in the absence of chemical substance” value (yeast gene YCR010C) was 1.3. The “level of expressed mRNA in the presence/in the absence of chemical substance” value (yeast gene YCR034W) was 0.3, the “The level of expressed mRNA in the presence of chemical substance/The level of expressed mRNA in the absence of chemical substance” value (yeast gene YCR048W) was 0.2 and the “The level of expressed mRNA in the presence of chemical substance/The level of expressed mRNA in the absence of chemical substance” value (yeast gene YCR098C) was 1.6. For the same molecule, the “The level of expressed mRNA in the presence of chemical substance/The level of expressed mRNA in the absence of chemical substance” value (yeast gene YDR009W) was 2.4, the “The level of expressed mRNA in the presence of chemical substance/The level of expressed mRNA in the absence of chemical substance” value (yeast gene YDR019C) was 4.8 and the “level of expressed mRNA in the presence/in the absence of chemical substance” value (yeast gene YDR050C) was 1.7. The “level of expressed mRNA in the presence/in the absence of chemical substance” value (yeast gene YDR073W) was 1.3, the “level of expressed mRNA in the presence/in the absence of chemical substance” value (yeast gene YDR123C) was 0.7 and the “level of expressed mRNA in the presence/in the absence of chemical substance” value (yeast gene YDR178W) was 2.1. For the same molecule, the “level of expressed mRNA in the presence/in the absence of chemical substance” value (yeast gene YDR277C) was 1.1, the “level of expressed mRNA in the presence/in the absence of chemical substance” value (yeast gene YDR284C) was 1.8 and the “level of expressed mRNA in the presence/in the absence of chemical substance” value (yeast gene YDR345C) was 1.2. The “The level of expressed mRNA in the presence of chemical substance/The level of expressed mRNA in the absence of chemical substance” value (yeast gene YDR380W) was 0.4, the “level of expressed mRNA in the presence/in the absence of chemical substance” value (yeast gene YDR400W) was 1.1 and the “level of expressed mRNA in the presence/in the absence of chemical substance” value (yeast gene YDR408C) was 0.9. For the same molecule, the “level of expressed mRNA in the presence/in the absence of chemical substance” value (yeast gene YDR483W) was 1.5, the “The level of expressed mRNA in the presence of chemical substance/The level of expressed mRNA in the absence of chemical substance” value (yeast gene YDR497C) was 0.6 and the “The level of expressed mRNA in the presence of chemical substance/The level of expressed mRNA in the absence of chemical substance” value (yeast gene YDR502C) was 1.5. The “The level of expressed mRNA in the presence of chemical substance/The level of expressed mRNA in the absence of chemical substance” value (yeast gene YDR516C) was 1.8, the “level of expressed mRNA in the presence/in the absence of chemical substance” value (yeast gene YEL063C) was 1.3 and the “The level of expressed mRNA in the presence of chemical substance/The level of expressed mRNA in the absence of chemical substance” value (yeast gene YER014W) was 4.0. For the same molecule, the “level of expressed mRNA in the presence/in the absence of chemical substance” value (yeast gene YER015W) was 0.9, the “The level of expressed mRNA in the presence of chemical substance/The level of expressed mRNA in the absence of chemical substance” value (yeast gene YER026C) was 2.5 and the “The level of expressed mRNA in the presence of chemical substance/The level of expressed mRNA in the absence of chemical substance” value (yeast gene YER053C) was 2.8. The “The level of expressed mRNA in the presence of chemical substance/The level of expressed mRNA in the absence of chemical substance” value (yeast gene YER069W) was 1.3, the “level of expressed mRNA in the presence/in the absence of chemical substance” value (yeast gene YER081W) was 1.1 and the “The level of expressed mRNA in the presence of chemical substance/The level of expressed mRNA in the absence of chemical substance” value (yeast gene YER096W) was 1.2. For the same molecule, the “level of expressed mRNA in the presence/in the absence of chemical substance” value (yeast gene YER120W) was 1.5, the “The level of expressed mRNA in the presence of chemical substance/The level of expressed mRNA in the absence of chemical substance” value (yeast gene YER178W) was 2.5 and the “level of expressed mRNA in the presence/in the absence of chemical substance” value (yeast gene YFL011W) was 1.0. The “The level of expressed mRNA in the presence of chemical substance/The level of expressed mRNA in the absence of chemical substance” value (yeast gene YFL014W) was 9.3, the “The level of expressed mRNA in the presence of chemical substance/The level of expressed mRNA in the absence of chemical substance” value (yeast gene YFL030W) was 1.3 and the “The level of expressed mRNA in the presence of chemical substance/The level of expressed mRNA in the absence of chemical substance” value (yeast gene YFL031W) was 0.3.
